In PMC7033309, “π-Helix controls activity of oxygen-sensing diguanylate cyclases” (Bioscience Reports, 2020):

Target: T1, PccGCS (Pectobacterium carotovorum, UniProt C6D9C2, H237A/K238A)
T1 construct: gene PC1_2619; full-length PccGCS H237A/K238A (His-tagged)
T1 sequence (C6D9C2 1-471 H237A/K238A): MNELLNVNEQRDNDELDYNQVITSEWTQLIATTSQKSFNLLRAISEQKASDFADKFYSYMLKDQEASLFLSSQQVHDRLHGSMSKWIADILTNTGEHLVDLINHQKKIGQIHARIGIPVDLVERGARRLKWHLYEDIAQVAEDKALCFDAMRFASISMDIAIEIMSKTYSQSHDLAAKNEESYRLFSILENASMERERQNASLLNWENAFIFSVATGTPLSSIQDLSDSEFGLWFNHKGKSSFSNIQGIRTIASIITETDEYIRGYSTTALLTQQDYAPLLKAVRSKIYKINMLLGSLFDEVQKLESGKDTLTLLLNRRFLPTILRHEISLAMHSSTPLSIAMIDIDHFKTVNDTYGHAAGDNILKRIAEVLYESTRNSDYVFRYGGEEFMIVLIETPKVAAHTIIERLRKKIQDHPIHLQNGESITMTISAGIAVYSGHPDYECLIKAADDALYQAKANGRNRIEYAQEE
Assay: isothermal titration calorimetry, […]°C
Format: binding

Nc1nc2c(ncn2[C@@H]2O[C@H](COP(=O)(O)CP(=O)(O)OP(=O)(O)O)[C@@H](O)[C@H]2O)c(=O)[nH]1 [GpCpp, guanosine-5′-[(α,β)-methyleno]triphosphate]
Kd: 9.7 ± 3.9 µM
